Results on two compounds are retold here after ChEMBL document CHEMBL1201862, “PubChem BioAssay data set” (2004).

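Following 48 hours of exposure in 96-well plates, responses at five concentrations were used to interpolate endpoints linearly. Here, GI50 denotes the concentration required for 50% inhibition of growth.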 Active and inactive are the calls of the source. Rule as the data show it: active = GI50 up to about 1.1 µM and inactive = higher.

Test systems include DMS-273; RXF 631; DLD-1; LXFL 529; KM-20L2; M19-MEL; HOP-18; XF498; SNB-78.
Assay in all cases: NCI tumour cell line growth inhibition, 48 h

Regarding `O=[N+]([O-])c1ccc(C2CC(c3ccccc3Cl)=Nc3ccccc3S2)cc1` (stereo not drawn), the GI50 with DMS-273 is 4710 nM (inactive); in the test with RXF 631, 5740 nM (inactive); in the test on DLD-1 it was 2300 nM (inactive); in the test on LXFL 529, 2840 nM (inactive); in the test on KM-20L2, 4740 nM (inactive); with M19-MEL, 10500 nM (inactive). For the same compound, the values for the GI50 with HOP-18, in the test with XF498 and in the test on SNB-78 were 3300 nM (inactive), 7130 nM (inactive) and 16100 nM (inactive), respectively.

As to `CN(C)CCN1C(=O)c2cccc3cc([N+](=O)[O-])cc(c23)C1=O` [MITONAFIDE], the GI50 in the test with DMS-273 is 51.4 nM (active); with RXF 631, 171 nM (active); in the test with DLD-1, 873 nM (active); with LXFL 529, 682 nM (active); in the test with KM-20L2 it was 405 nM (active); in the test on M19-MEL, 377 nM (active). Also, the GI50 is 652 nM (active) with HOP-18, 303 nM (active) in the test on XF498 and 2000 nM (inactive) with SNB-78.
